From ChEMBL document CHEMBL1159316, “Bioactive saponins from Acacia tenuifolia from the suriname rainforest” (J Nat Prod, 2002) come the findings set out here.

Values after ≈ are worked out from the molar mass of the structure shown.

In one test the test system is M109. The test is described as follows: Cytotoxicity against mouse M109 cells. The format is functional, cell-based.
Test [1] concerns Saccharomyces cerevisiae. Nature of the test: Antifungal activity against Saccharomyces cerevisiae 1140. The format is functional.
In test [2] the test system is Saccharomyces cerevisiae. Nature of the test: Antifungal activity against Saccharomyces cerevisiae Sc7. The format is functional.
The subject of test [3] is Saccharomyces cerevisiae. The test is described as follows: Antifungal activity against Saccharomyces cerevisiae 1138. In kind it is functional.
Test [4] relates to Saccharomyces cerevisiae. Nature of the test: Antifungal activity against Saccharomyces cerevisiae 1353. In kind it is functional.
For the next test, the system named is A2780. The test is described as follows: Cytotoxicity against human A2780 cells. In kind it is functional, cell-based.

Broadly, the IC50 is the concentration that inhibits the measured activity by half. Higher therefore signals weaker potency. In turn, `CC(=O)N[C@H]1[C@H](O[C@H]2CC[C@]3(C)[C@H]4CC=C5[C@@H]6CC(C)(C)CC[C@]6(C(=O)O)CC[C@@]5(C)[C@]4(C)CC[C@H]3C2(C)C)O[C@H](CO[C@@H]2OC[C@H](O)[C@H](O)[C@H]2O[C@@H]2OC[C@H](O)[C@H](O)[C@H]2O)[C@@H](O)[C@@H]1O` had an IC50 in the test on M109 of 1 µg/mL (≈ 1.08 µM). The IC12 stood at 40 µg/mL in the test on Saccharomyces cerevisiae [1], 45 µg/mL with Saccharomyces cerevisiae [2], 25 µg/mL with Saccharomyces cerevisiae [3] and 30 µg/mL in the test on Saccharomyces cerevisiae [4].

Molecule `CC(=O)N[C@H]1[C@H](O[C@H]2CC[C@]3(C)[C@H]4CC=C5[C@@H]6CC(C)(C)[C@@H](OC(=O)/C=C/c7ccccc7)C[C@]6(C(=O)O)[C@H](O)C[C@@]5(C)[C@]4(C)CC[C@H]3C2(C)C)O[C@H](CO[C@@H]2OC[C@H](O)[C@H](O)[C@H]2O[C@@H]2OC[C@@H](O)[C@H](O)[C@H]2O)[C@@H](O)[C@@H]1O` [ACACIOSIDE B] yielded an IC50 in the test on A2780 of 13.5 µg/mL (≈ 12.4 µM). In addition, the IC12 with Saccharomyces cerevisiae [1] was 220 µg/mL; with Saccharomyces cerevisiae [2], 280 µg/mL; in the test with Saccharomyces cerevisiae [3], 150 µg/mL; in the test on Saccharomyces cerevisiae [4], 220 µg/mL.

For the molecule `CC(=O)N[C@H]1[C@H](O[C@H]2CC[C@]3(C)[C@H]4CC=C5[C@@H]6CC(C)(C)[C@@H](OC(=O)/C=C/c7ccccc7)C[C@]6(C(=O)O)[C@H](O)C[C@@]5(C)[C@]4(C)CC[C@H]3C2(C)C)O[C@H](CO[C@@H]2OC[C@H](O)[C@H](O)[C@H]2O[C@@H]2OC[C@H](O)[C@H](O)[C@H]2O)[C@@H](O)[C@@H]1O` [ACACIOSIDE C], the IC50 in the test on A2780 amounted to 13 µg/mL (≈ 12 µM). Moreover, the IC12 is 215 µg/mL in the test with Saccharomyces cerevisiae [1], 275 µg/mL with Saccharomyces cerevisiae [2], 160 µg/mL in the test with Saccharomyces cerevisiae [3] and 220 µg/mL in the test with Saccharomyces cerevisiae [4].

For the molecule `CC(=O)N[C@H]1[C@H](O[C@H]2CC[C@]3(C)[C@H]4CC=C5[C@@H]6CC(C)(C)CC[C@]6(C(=O)O)CC[C@@]5(C)[C@]4(C)CC[C@H]3C2(C)C)O[C@H](CO[C@@H]2OC[C@H](O)[C@H](O)[C@H]2O[C@@H]2OC[C@@H](O)[C@H](O)[C@H]2O)[C@@H](O)[C@@H]1O` [ALBIZIATRIOSIDE A], in the test with M109, half-maximal inhibition (IC50) was put at 1 µg/mL (≈ 1.08 µM). For the same molecule, the IC12 was 35 µg/mL in the test on Saccharomyces cerevisiae [1], 30 µg/mL in the test on Saccharomyces cerevisiae [2], 30 µg/mL in the test with Saccharomyces cerevisiae [3] and 35 µg/mL with Saccharomyces cerevisiae [4].
